{"source": "patent US5686255A", "about": "“Compositions and methods for diagnosing schizophrenia” (priority 1995, dated 1997)", "key": {"[1]": {"test_system": "Chinese hamster ovary cells which express the cloned dopamine D4 receptor", "test": "Spontaneous G protein binding of [35S]GTPγS in membranes of CHO cells expressing the D4 receptor, after cycloleucine pretreatment", "assay_type": "cell-based", "conditions": "cells treated with 0.1 mM and 1 mM cycloleucine prior to membrane preparation; versus untreated control membranes; FIG. 5A", "description": "The effect of cycloleucine, a known MAT inhibitor, on the binding of [^35 S]GTPγS was tested by treating Chinese hamster ovary cells expressing the D4 receptor with 0.1 mM and 1 mM cycloleucine prior to membrane preparation (FIG. 5A).\nChinese hamster ovary (CHO) cells stably expressing a cloned dopamine D4 receptor were grown as monolayers at 37° (95% O2 /5%CO2) in alpha minimum essential medium supplemented with 2.5% fetal calf serum, 2.5% horse serum, 100 units/ml penicillin, 100 μg/ml streptomycin, 0.25 μg/ml fungizone and 400 μg/ml G418.\nCells were washed twice with phosphate-buffered saline (137 mM NaCl, 2.6 mM KCl, 10 mM Na2 HPO4, 1.8 mM KH2 PO4), harvested with a rubber policeman, and pelleted at 4° at 200× g. The pellet was resuspended in 5 ml/dish of lysis buffer (5 mM Tris-HCL, pH 7.5, 5 mM EDTA, 5 mM EGTA, 0.1 mM phenylmethylsulfonyl fluoride) at 4° and was homogenized with a Dounce homogenizer. […]\n[^35 S]GTPγS binding was measured with a modification of the assay used by Hilf and Jakobs (Eur J Pharmacol 172: 155-163 (1989)). […] The filters were washed four times (with 4 ml of 50 mM Tris.cndot.HCl, pH 7.5, containing 5 mM MgCl2 and 100 mM NaCl) and then counted in scintillation cocktail. Nonspecific binding was determined in the presence of 10 μM GTPγS and subtracted from total bound radioactivity."}, "[2]": {"test_system": "Chinese hamster ovary cells without the D4 receptor", "test": "Spontaneous [35S]GTPγS binding in CHO cells without the D4 receptor", "assay_type": "cell-based", "conditions": "FIG. 5B", "from_the_text": "FIGS. 5A and 5B illustrate graphic representations of the effect of cycloleucine on spontaneous G protein binding of [^35 S]GTPγS."}}, "note": "Entries after “also recorded” stand apart in the source; their conditions may differ."}
{"smiles": "NC1(C(=O)O)CCCC1", "note": "[cycloleucine]", "values": [{"measurement": "binding of [35S]GTPγS to the membranes (spontaneous G protein activation)", "setting": "[1]", "result": "inhibit spontaneous G protein binding of [^35 S]GTPγS; also recorded: progressively reduced by 0.1 mM and 1 mM cycloleucine pretreatment to levels significantly lower than the untreated control membranes"}, {"measurement": "effect on spontaneous [35S]GTPγS binding", "setting": "[2]", "result": "inability of cycloleucine to affect spontaneous [^35 S]GTPγS binding"}]}
